# Experimental data as given in ChEMBL document CHEMBL1151416, “Revised structure of phaeantharine” (1983).
# How the values were obtained:
# Bacillus subtilis = assay: Antibacterial activity against Bacillus subtilis by agar-diffusion test; type: functional
# Staphylococcus aureus = assay: Antibacterial activity against Staphylococcus aureus by agar-diffusion test; type: functional
smiles,measurement,setting,value
COc1cc2cc[n+](C)c(Cc3ccc(Oc4cc(Cc5c6cc(OC)c(OC)cc6cc[n+]5C)ccc4OC)cc3)c2cc1OC [PHAEANTHARINE],MIC,Bacillus subtilis,74 µg/mL
same,MIC,Staphylococcus aureus,86 µg/mL
